# Assay results published in the supplement of paper PMC10307832.
# Tests used:
# Test in all cases: relative viability (nuclei count vs DMSO), 5 days (fraction); higher = more cells survive
# Dovitinib + Olaparib = compound: CN1CCN(c2ccc3nc(-c4c(N)c5c(F)cccc5[nH]c4=O)[nH]c3c2)CC1 [Dovitinib] + O=C(c1cc(Cc2n[nH]c(=O)c3ccccc23)ccc1F)N1CCN(C(=O)C2CC2)CC1 [Olaparib] (partner 8 µM)
# Outline: (§1)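 Lung cancer cell lines, seeded in 1536-well plates, were treated the following day by pin tool with a single drug or with five library-drug doses (not always all listed) in √10 steps on top of a fixed anchor-drug dose. Cells were fixed and nuclei stained in one step after 5 days, and nuclei were counted. Relative viability is the nuclei count for treated wells divided by that for vehicle wells, reported as medians of duplicate plates.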
# Dovitinib + Phenformin = compound: CN1CCN(c2ccc3nc(-c4c(N)c5c(F)cccc5[nH]c4=O)[nH]c3c2)CC1 [Dovitinib] + N=C(N)NC(=N)NCCc1ccccc1 [Phenformin] (partner 250 µM)
# Outline: as §1
# Dovitinib + Lapatinib = compound: CN1CCN(c2ccc3nc(-c4c(N)c5c(F)cccc5[nH]c4=O)[nH]c3c2)CC1 [Dovitinib] + CS(=O)(=O)CCNCc1ccc(-c2ccc3ncnc(Nc4ccc(OCc5cccc(F)c5)c(Cl)c4)c3c2)o1 [Lapatinib] (partner 2 µM)
# Outline: as §1
# Dovitinib + Trametinib = compound: CN1CCN(c2ccc3nc(-c4c(N)c5c(F)cccc5[nH]c4=O)[nH]c3c2)CC1 [Dovitinib] + CC(=O)Nc1cccc(-n2c(=O)n(C3CC3)c(=O)c3c(Nc4ccc(I)cc4F)n(C)c(=O)c(C)c32)c1 [Trametinib] (partner 0.02 µM)
# Outline: as §1
Cell Line,relative viability (Dovitinib + Olaparib; first compound 0.02 µM),relative viability (Dovitinib + Olaparib; first compound 0.06325 µM),relative viability (Dovitinib + Olaparib; first compound 0.2 µM),relative viability (Dovitinib + Olaparib; first compound 0.6325 µM),relative viability (Dovitinib + Olaparib; first compound 2 µM),relative viability (Dovitinib + Phenformin; first compound 0.02 µM),relative viability (Dovitinib + Phenformin; first compound 0.06325 µM),relative viability (Dovitinib + Phenformin; first compound 0.2 µM),relative viability (Dovitinib + Phenformin; first compound 0.6325 µM),relative viability (Dovitinib + Phenformin; first compound 2 µM),relative viability (Dovitinib + Lapatinib; first compound 0.02 µM),relative viability (Dovitinib + Lapatinib; first compound 0.06325 µM),relative viability (Dovitinib + Lapatinib; first compound 0.2 µM),relative viability (Dovitinib + Lapatinib; first compound 0.6325 µM),relative viability (Dovitinib + Lapatinib; first compound 2 µM),relative viability (Dovitinib + Trametinib; first compound 0.02 µM),relative viability (Dovitinib + Trametinib; first compound 0.06325 µM),relative viability (Dovitinib + Trametinib; first compound 0.2 µM),relative viability (Dovitinib + Trametinib; first compound 0.6325 µM),relative viability (Dovitinib + Trametinib; first compound 2 µM)
NCI-H661,0.68,0.749,0.738,0.774,0.752,0.267,0.328,0.304,0.268,0.308,0.562,0.512,0.51,0.437,0.483,0.581,0.617,0.678,0.637,0.607
NCI-H1993,1.07,0.961,1.08,0.912,0.982,0.483,0.516,0.496,0.499,0.505,0.853,0.803,0.952,0.799,0.731,0.517,0.481,0.489,0.58,0.502
NCI-H1437,0.623,0.647,0.612,0.632,0.655,0.297,0.292,0.595,0.304,0.346,0.813,0.802,0.843,0.821,0.788,0.564,0.475,0.521,0.519,0.462
UMC-11,0.334,0.352,0.383,0.387,0.435,0.315,0.327,0.347,0.323,0.344,1.04,1.01,0.96,0.963,0.724,0.742,0.69,0.793,0.669,0.767
201T,0.803,0.842,0.809,0.865,0.815,0.449,0.42,0.463,0.409,0.459,0.95,0.993,,1.01,0.968,0.706,0.701,0.699,0.748,0.674
NCI-H358,0.621,0.658,0.619,0.543,0.606,0.291,0.357,0.408,0.317,0.319,0.507,0.417,0.446,0.492,0.438,0.156,0.144,0.154,0.19,0.143
NCI-H1650,0.595,0.703,0.823,0.804,0.733,0.517,0.5,0.513,0.448,0.388,0.656,0.698,0.792,0.743,0.875,0.718,0.625,0.757,0.598,0.816
LOU-NH91,0.94,0.922,0.93,0.907,0.948,0.826,0.666,0.748,0.785,0.775,0.794,0.675,0.717,0.858,0.726,0.81,0.784,0.798,0.82,0.815
HOP-62,0.346,0.559,0.425,0.329,0.352,0.616,0.713,0.742,0.55,0.646,0.876,0.999,1,1.24,1.1,0.368,0.386,0.397,0.392,0.352
NCI-H1915,0.253,0.27,0.271,0.264,0.257,0.361,0.38,0.365,0.358,0.379,0.87,0.955,0.971,0.944,1.02,0.275,0.282,0.306,0.283,0.319
NCI-H3122,0.623,0.619,0.663,0.56,0.536,0.34,0.362,0.414,0.33,0.385,0.996,1.01,0.967,1.05,1.02,0.217,0.226,0.231,0.234,0.248
NCI-H1651,0.175,0.187,0.167,0.191,0.163,0.336,0.352,0.485,0.347,0.275,0.914,1,0.913,0.777,0.929,0.852,0.809,0.816,0.81,0.857
NCI-H838,0.738,0.733,0.755,0.745,0.763,0.553,0.627,0.74,0.62,0.662,0.907,1.11,1.05,0.919,0.97,0.514,0.499,0.487,0.477,0.543
NCI-H596,0.672,0.688,0.65,0.687,0.627,0.711,0.864,0.785,0.815,0.804,1.05,1.13,1.14,0.894,1,0.701,0.844,0.764,0.694,0.777
SK-LU-1,0.418,0.487,0.446,0.501,0.452,0.515,0.525,0.594,0.595,0.528,0.735,0.927,0.875,0.814,0.823,0.429,0.516,0.491,0.551,0.52
NCI-H650,0.348,0.388,0.391,0.414,0.429,0.442,0.417,0.446,0.461,0.504,0.91,0.819,0.784,0.896,1.12,1.02,0.952,1.08,0.946,1.21

Cell Line,relative viability (Dovitinib + Olaparib; first compound 0.02 µM),relative viability (Dovitinib + Olaparib; first compound 0.06325 µM),relative viability (Dovitinib + Olaparib; first compound 0.2 µM),relative viability (Dovitinib + Olaparib; first compound 0.6325 µM),relative viability (Dovitinib + Olaparib; first compound 2 µM),relative viability (Dovitinib + Phenformin; first compound 0.02 µM),relative viability (Dovitinib + Phenformin; first compound 0.06325 µM),relative viability (Dovitinib + Phenformin; first compound 0.2 µM),relative viability (Dovitinib + Phenformin; first compound 0.6325 µM),relative viability (Dovitinib + Phenformin; first compound 2 µM),relative viability (Dovitinib + Lapatinib; first compound 0.02 µM),relative viability (Dovitinib + Lapatinib; first compound 0.06325 µM),relative viability (Dovitinib + Lapatinib; first compound 0.2 µM),relative viability (Dovitinib + Lapatinib; first compound 0.6325 µM),relative viability (Dovitinib + Lapatinib; first compound 2 µM),relative viability (Dovitinib + Trametinib; first compound 0.02 µM),relative viability (Dovitinib + Trametinib; first compound 0.06325 µM),relative viability (Dovitinib + Trametinib; first compound 0.2 µM),relative viability (Dovitinib + Trametinib; first compound 0.6325 µM),relative viability (Dovitinib + Trametinib; first compound 2 µM)
SK-MES-1,0.682,0.749,0.74,0.773,0.829,0.662,0.7,0.69,0.634,0.667,0.438,0.47,0.482,0.524,0.437,0.531,0.59,0.597,0.567,0.61
NCI-H1792,0.582,0.41,0.404,0.614,0.548,0.384,0.264,0.482,0.357,0.322,0.852,0.892,0.952,1.06,0.855,0.394,0.457,0.416,0.46,0.36
NCI-H1355,0.792,0.762,0.717,0.723,0.754,0.428,0.428,0.477,0.433,0.529,0.977,0.945,0.984,1.02,1.13,0.461,0.405,0.475,0.45,0.492
SW 1573,0.512,0.525,0.593,0.446,0.507,0.355,0.413,0.473,0.282,0.359,1.18,1.06,1.05,1.17,1.16,0.579,0.617,0.563,0.551,0.592
NCI-H2347,0.568,0.59,0.621,0.641,0.606,0.294,0.381,0.378,0.43,0.376,0.588,0.882,1,0.924,0.967,0.284,0.289,0.286,0.277,0.271
LCLC-97TM1,0.371,0.443,0.369,0.364,0.255,0.354,0.412,0.431,0.43,0.428,0.835,0.752,1.02,0.602,1.03,0.267,0.204,0.199,0.196,0.203
EMC-BAC-2,0.569,0.513,0.5,0.486,0.504,0.527,0.482,0.538,0.471,0.542,0.886,0.839,0.898,0.807,0.923,1.2,0.811,0.986,0.873,0.945
NCI-H1975,0.733,0.912,0.671,0.792,0.74,0.427,0.415,0.411,0.409,0.423,0.899,0.979,0.917,0.89,0.907,0.404,0.405,0.329,0.382,0.388
BEN,1.11,1.09,1.08,1.1,1.05,0.248,0.288,0.281,0.296,0.305,0.533,0.822,0.835,0.771,0.808,0.976,0.888,1.01,1.05,1.04
NCI-H23,0.271,0.314,0.333,0.298,0.338,0.888,0.843,0.746,0.737,0.754,1.02,1.09,1.05,1.13,1.17,0.391,0.446,0.376,0.4,0.378
NCI-H520,0.358,0.315,0.332,0.33,0.389,0.558,0.572,0.625,0.514,0.545,0.826,0.822,0.903,0.79,0.921,0.599,0.619,0.812,0.586,0.638
CAL-12T,0.69,0.434,0.733,0.61,0.713,0.585,0.624,0.556,0.616,0.664,0.709,0.501,0.713,0.618,0.986,0.491,0.34,0.413,0.36,0.371
EPLC-272H,0.815,0.893,0.793,0.681,0.57,0.323,0.309,0.274,0.384,0.317,0.992,0.939,0.94,1.1,1.23,0.306,0.269,0.298,0.269,0.303
NCI-H2405,0.858,0.849,0.944,0.815,0.903,0.389,0.345,0.448,0.331,0.446,1.1,0.946,1.04,1.09,1.35,0.757,0.56,0.692,0.597,0.738
HCC-15,0.687,0.703,0.71,0.696,0.726,0.482,0.475,0.502,0.436,0.472,0.853,0.857,0.91,0.874,0.845,0.434,0.342,0.369,0.341,0.377
PC-3 [JPC-3],1.16,1.16,1.14,1.13,1.15,0.486,0.494,0.467,0.474,0.474,0.483,0.398,0.466,0.488,0.47,0.767,0.675,0.731,0.738,0.715
